Assays:
activated neutrophils = test: Inhibition of superoxide production by PMA-activated neutrophils (WST-1 reduction), anti-inflammatory activity; assay type: cell-based; settings: Rattus norvegicus, Neutrophil
Procedure: The relative anti-inflammatory properties of the test samples were determined by establishing their abilities to inhibit the activation of neutrophils as measured by the production of superoxide. The efficacy of the test samples was referenced against Aspirin, as well as an un-supplemented control group.
Samples 1, 2 and 3 (actually numbered samples 3, 4 and 5 in the above table) were produced from the same batch of mussels. Each of the above test samples was extracted with ethanol at a ratio of 1:10 (w:v) and the residues were then extracted with distilled water at the same ratio, so that the activity of both the lipid rich or hydrophobic fraction and the hydrophilic or aqueous fraction of each of the test samples could be tested. The experimental procedure for determining the effects of the test samples on inflammation was based on the methods described in Tan, A S and Berridge, MV (2000). Superoxide produced by activated neutrophils efficiently reduces the tetrazolium salt, WST-1 to produce a soluble formazan: a simple colorimetric assay for measuring respiratory burst activation and for screening of anti-inflammatory agents. J Immunol. Meth. 238: 59-68. Neutrophils were harvested from rat whole blood and activated with phorbol 12-myristate 13-acetate (PMA). The activated neutrophils were then incubated and cultured in the presence of each of the test samples and the controls. The reduction of the WST-1 dye was measured to determine the products of superoxide. The control group was set at 100% activity (0% inhibition) and the inhibition of all samples were compared to this reference.
The ethanol and water extracts (lipid rich and hydrophilic fractions) from each of the test samples were tested at 400 μg/ml for their anti-inflammatory activity based on the inhibition of superoxide by activated neutrophils. The yields of each extraction were used along with the activity of each to obtain an estimate for the total activity within each of the test samples for the two fractions.

[1] = DPPH scavenging method (antioxidant activity); settings: reference value used for FIG. 8
Procedure: The antioxidant activity of each of the samples was tested using the DPPH scavenging method (i.e. by using the stable free radical 2,2-Diphenyl-1-(2,4,6-trinitrophenyl) hydrazyl as a substrate). Whilst the DPPH method is not a direct anti-inflammatory assay, antioxidant activity has been an indication of anti-inflammatory activity in many study cases. The DPPH solution was prepared […] and kept in the freezer in the dark before use. The positive control was ascorbic acid prepared as 0.1 mg/ml in a buffer containing citric acid and NaHPO4 (pH 5). Equal amounts of sample solution and DPPH solution were added together, and the assay tube or plate was incubated for 30 minutes in the dark, followed by absorbance measurement at 517 nm on a spectrophotometer. In the blank control experiment of each sample, DPPH was replaced with ethanol. In the DPPH blank control experiment, the sample was replaced with the media (water or solvent) the sample was prepared in.
The scavenging activity (DPPH inhibition %) is calculated by percentage of the absorbance from the sample versus the DPPH only:
All samples were tested at a concentration of 10 mg/ml.

Compound | IC50 (activated neutrophils; reference value used for FIG. 7, read-out: IC50 of aspirin equivalent) | inhibition at 100 µg/mL (activated neutrophils; reference, 100 μg/ml) | inhibition at 200 µg/mL (activated neutrophils; reference, 200 μg/ml) | inhibition at 400 µg/mL (activated neutrophils; reference, 400 μg/ml) | IC50 of Vitamin E equivalent [1]
CC(=O)Oc1ccccc1C(=O)O [Aspirin] | 400 µg/mL | 16.5% | 48.1% | 50.2% | –
Vitamin E | – | – | – | – | 9.26 µg/mL
